Usually EC50 stands for the concentration at which the effect is half-maximal.

This experiment concerns HIV-1. As to the kind of experiment: Single-round infectious HIV-1 luciferase reporter virus infection of HeLa CD4 cells. Format: cell-based. The note with it: Human immunodeficiency virus 1, HeLa, 72 h, read-out: EC50 Group from Table 1. The method, then:
• Virus production—Human embryonic Kidney cell line, 293T, was propagated in Dulbecco's Modified Eagle Medium (Invitrogen, Carlsbad, Calif.) containing 10% fetal Bovine serum (FBS, Sigma, St. Louis, Mo.). • Virus infection—Human epithelial cell line, HeLa, expressing the HIV-1 receptor CD4 was propagated in Dulbecco's Modified Eagle Medium (Invitrogen, Carlsbad, Calif.) containing 10% fetal Bovine serum (FBS, Sigma, St. Louis, Mo.) and supplemented with 0.2 mg/mL Geneticin (Invitrogen, Carlsbad, Calif.). Virus—Single-round infectious reporter virus was produced by co-transfecting human embryonic Kidney 293 cells with an HIV-1 envelope DNA expression vector and a proviral cDNA containing an envelope deletion mutation and the luciferase reporter gene inserted in place of HIV-1 nef sequences (Chen et al, Ref 41). Transfections were performed using lipofectAMINE PLUS reagent as described by the manufacturer (Invitrogen, Carlsbad, Calif.). Experiment • 1. HeLa CD4 cells were plated in 96 well plates at a cell density of 1×10^4 cells per well in 100 μl Dulbecco's Modified Eagle Medium containing 10% fetal Bovine serum and incubated overnight. • 2. Compound was added in a 2 μl dimethylsulfoxide solution, so that the final assay concentration would be ≦10 μM. • 3. 100 μl of single-round infectious reporter virus in Dulbecco's Modified Eagle Medium was then added to the plated cells and compound at an approximate multiplicity of infection (MOI) of 0.01, resulting in a final volume of 200 μl per well. • 4. Virally-infected cells were incubated at 37 degrees Celsius, in a CO2 incubator, and harvested 72 h after infection. • 5. Viral infection was monitored by measuring luciferase expression from viral DNA in the infected cells using a luciferase reporter gene assay kit, as described by the manufacturer (Roche Molecular Biochemicals, Indianapolis, Ind.). Infected cell supernatants were removed and 50 μl of lysis buffer was added per well. After 15 minutes, 50 μl of freshly-reconstituted luciferase assay reagent was added per well. Luciferase activity was then quantified by measuring luminescence using a Wallac microbeta scintillation counter. • 6. The percent inhibition for each compound was calculated by quantifying the level of luciferase expression in cells infected in the presence of each compound as a percentage of that observed for cells infected in the absence of compound and subtracting such a determined value from 100. • 7. An EC50 provides a method for comparing the antiviral potency of the compounds of this invention. The effective concentration for fifty percent inhibition (EC50) was calculated with the Microsoft Excel Xlfit curve fitting software. For each compound, curves were generated from percent inhibition calculated at 10 different concentrations by using a four parameter logistic model (model 205). Table 1 is the key for the data in Table 2. Results
(Reporter assays use an easily measured gene product as a stand-in for the process of interest.)

Molecules are shown by their SMILES. A value given as a limit tells only on which side of the number the result lay.

Take `N#CC(=C1CCN(C(=O)C(=O)c2c[nH]c3c(N4C(=O)N[C@@H](CCC(=O)O)C4=O)cccc23)CC1)c1ccccc1` [P-I-17]: the EC50 was under 1 µM.

Turning to `CNCCCN(C)CCN1CCN(c2cccc3c(C(=O)C(=O)N4CCN(C(=O)c5ccccc5)C[C@H]4C)c[nH]c23)C1=O` [P-H-3], the EC50 was under 1 µM.

With `CC(=O)Nc1ccc(F)c2c(C(=O)C(=O)N3CCC(=C(C#N)c4ccccn4)CC3)c[nH]c12` [P-B-1], the EC50 is under 1 µM.

`C[C@@H]1CN(C(=O)c2ccccc2)CCN1C(=O)C(=O)c1c[nH]c2c(NC(=O)NC3CCN(C(=O)C(F)(F)F)CC3)cccc12` [P-C-24]: the EC50 is under 1 µM.

Turning to `C[C@@H]1CN(C(=O)c2ccccc2)CCN1C(=O)C(=O)c1c[nH]c2c(NC(=O)C(=O)O)cccc12` [P-A-18], the EC50 is under 1 µM.

Consider `C[C@@H]1CN(C(=O)c2ccccc2)CCN1C(=O)C(=O)c1c[nH]c2c(NS(C)(=O)=O)cccc12` [P-E-1], for which the EC50 was under 1 µM.

Turning to `CCOC(=O)CCCNC(=O)Nc1ncc(F)c2c(C(=O)C(=O)N3CCN(C(=O)c4ccccc4)CC3)c[nH]c12` [P-C-26], the EC50 was under 1 µM.

With `C[C@@H]1CN(C(=O)c2ccccc2)CCN1C(=O)C(=O)c1c[nH]c2c(NC(=O)C3OC3C(=O)O)cccc12` (stereo partly drawn) [P-A-10], the EC50 is under 1 µM.

`CCOC(=O)CC[C@@H]1NC(=O)N(c2cccc3c(C(=O)C(=O)N4CCC(=C(C#N)c5ccccc5)CC4)c[nH]c23)C1=O` [P-G-3]: the EC50 was under 1 µM.

For `CCOC(=O)CCNC(=O)Nc1cccc2c(C(=O)C(=O)N3CCN(C(=O)c4ccccc4)C[C@H]3C)c[nH]c12` [P-C-2], the EC50 was under 1 µM.

On to `CCOC(=O)c1ccccc1NC(=O)Nc1cccc2c(C(=O)C(=O)N3CCC(=C(C#N)c4ccccc4)CC3)c[nH]c12` [P-C-11], for which the EC50 was under 1 µM.

For the compound `C[C@@H]1CN(C(=O)c2ccccc2)CCN1C(=O)C(=O)c1c[nH]c2c(NC(=O)Nc3ccccc3C(=O)O)cccc12` [P-I-9], the EC50 is under 1 µM.

`N#CC(=C1CCN(C(=O)C(=O)c2c[nH]c3c(NC(=O)NCCCCCC(=O)O)cccc23)CC1)c1ccccc1` [P-I-7]: the EC50 was under 1 µM.

For `C[C@@H]1CN(C(=O)c2ccccc2)CCN1C(=O)C(=O)c1c[nH]c2c(NC(=O)NCCC(=O)O)cccc12` [P-I-2], the EC50 was under 1 µM.

With `CCOC(=O)CCCNC(=O)Nc1cccc2c(C(=O)C(=O)N3CCC(=C(C#N)c4ccccc4)CC3)c[nH]c12` [P-C-6], the EC50 is under 1 µM.

As to `CC(C)COC(=O)Nc1cccc2c(C(=O)C(=O)N3CCN(C(=O)c4ccccc4)C[C@H]3C)c[nH]c12` [P-D-1], the EC50 is under 1 µM.

As for `C[C@@H]1CN(C(=O)c2ccccc2)CCN1C(=O)C(=O)c1c[nH]c2c(NC(=O)CN(C)C)cccc12` [P-A-3], the EC50 is under 1 µM.

For `CC(=O)Nc1ccc(F)c2c(C(=O)C(=O)N3CCC(=C(C#N)c4cccnc4)CC3)c[nH]c12` [P-B-5], the EC50 was under 1 µM.

In the case of `C[C@@H]1CN(C(=O)c2ccccc2)CCN1C(=O)C(=O)c1c[nH]c2c(NC(=O)C[N+](C)(C)C)cccc12` [P-A-2], the EC50 was under 1 µM.

As to `CCOC(=O)CCCCCNC(=O)Nc1cccc2c(C(=O)C(=O)N3CCC(=C(C#N)c4ccccc4)CC3)c[nH]c12` [P-C-8], the EC50 is under 1 µM.

For `CC(=O)Nc1ccc(F)c2c(C(=O)C(=O)N3CC/C(=C(\C#N)c4ccccc4)CC3C)c[nH]c12` (stereo not drawn) [P-B-3], the EC50 was under 1 µM.

In the case of `C[C@@H]1CN(C(=O)c2ccccc2)CCN1C(=O)C(=O)c1c[nH]c2c(NC(=O)NCCCCCC(=O)O)cccc12` [P-I-6], the 50% effective concentration (EC50) was under 1 µM.

As to `N#CC(=C1CCN(C(=O)C(=O)c2c[nH]c3c(NC(=O)NCCC(=O)O)cccc23)CC1)c1ccccc1` [P-I-3], the EC50 was under 1 µM.

Turning to `C[C@@H]1CN(C(=O)c2ccccc2)CCN1C(=O)C(=O)c1c[nH]c2c(NC(=O)/C=C/C(=O)O)cccc12` [P-A-9], the EC50 is under 1 µM.

Turning to `C[C@@H]1CN(C(=O)c2ccccc2)CCN1C(=O)C(=O)c1c[nH]c2c(NC(=O)CO)cccc12` [P-I-1], the EC50 is under 1 µM.

With `C[C@@H]1CN(C(=O)c2ccccc2)CCN1C(=O)C(=O)c1c[nH]c2c(NS(=O)(=O)N(C)C)cccc12` [P-E-5], the EC50 was under 1 µM.

On to `C[C@@H]1CN(C(=O)c2ccccc2)CCN1C(=O)C(=O)c1c[nH]c2c(N3CCN(CCN(C)C)C3=O)cccc12` [P-H-2], for which the EC50 was under 1 µM.

For the compound `O=C(O)CCCNC(=O)Nc1ncc(F)c2c(C(=O)C(=O)N3CCN(C(=O)c4ccccc4)CC3)c[nH]c12` [P-I-16], the EC50 was under 1 µM.

As for `Cc1ccc(S(=O)(=O)Nc2cccc3c(C(=O)C(=O)N4CCN(C(=O)c5ccccc5)C[C@H]4C)c[nH]c23)cc1` [P-E-3], the concentration for a half-maximal effect (EC50) is 1 to 5 µM.

For the compound `COC(=O)NCCCCNC(=O)Nc1cccc2c(C(=O)C(=O)N3CCN(C(=O)c4ccccc4)C[C@H]3C)cn(C(=O)NCCCCNC(=O)OC)c12` [P-C-115], the EC50 was under 1 µM.

Consider `CCOC(=O)CCNC(=O)Nc1cccc2c(C(=O)C(=O)N3CCC(=C(C#N)c4ccccc4)CC3)c[nH]c12` [P-C-3], for which the EC50 is under 1 µM.

Take `CCOC(=O)CCCCCNC(=O)Nc1cccc2c(C(=O)C(=O)N3CCN(C(=O)c4ccccc4)C[C@H]3C)c[nH]c12` [P-C-7]: the EC50 is under 1 µM.

As to `C[C@@H]1CN(C(=O)c2ccccc2)CCN1C(=O)C(=O)c1c[nH]c2c(NC(=O)NCC(=O)O)cccc12` [P-I-18], the EC50 is under 1 µM.

Regarding `CC(C)/N=C(/Nc1cccc2c(C(=O)C(=O)N3CCN(C(=O)c4ccccc4)C[C@H]3C)c[nH]c12)NC(C)C` [P-F-1], the EC50 is under 1 µM.

Take `C[C@@H]1CN(C(=O)c2ccccc2)CCN1C(=O)C(=O)c1c[nH]c2c(NC(=O)CCC(=O)O)cccc12` [P-A-8]: the EC50 was under 1 µM.

For the compound `C[C@@H]1CN(C(=O)c2ccccc2)CCN1C(=O)C(=O)c1c[nH]c2c(NC(=O)Nc3cccc(C(=O)O)c3)cccc12` [P-I-11], the EC50 was under 1 µM.

For `C[C@@H]1CN(C(=O)c2ccccc2)CCN1C(=O)C(=O)c1c[nH]c2c(NC(=O)NCCCCCCCCNC(=O)Nc3cccc(B(O)O)c3)cccc12` [P-C-114], the EC50 is under 1 µM.

`N#CC(=C1CCN(C(=O)C(=O)c2c[nH]c3c(NC(=O)NC4CCN(C(=O)C(F)(F)F)CC4)cccc23)CC1)c1ccccc1` [P-C-25]: the EC50 is under 1 µM.

Take `N#CC(=C1CCN(C(=O)C(=O)c2c[nH]c3c(NC(=O)Nc4ccccc4C(=O)O)cccc23)CC1)c1ccccc1` [P-I-10]: the EC50 was under 1 µM.

For `CC(=O)Nc1ccc(F)c2c(C(=O)C(=O)N3CC/C(=C(\C#N)c4cccnc4)CC3C)c[nH]c12` (stereo not drawn) [P-B-7], the EC50 is under 1 µM.

As for `CC(=O)Nc1ccc(F)c2c(C(=O)C(=O)N3CCC(=C(C#N)c4ccncc4)CC3)c[nH]c12` [P-B-6], the EC50 is under 1 µM.

In the case of `C[C@@H]1CN(C(=O)c2ccccc2)CCN1C(=O)C(=O)c1cn(S(C)(=O)=O)c2c(NS(C)(=O)=O)cccc12` [P-E-2], the EC50 is under 1 µM.

Turning to `C[C@@H]1CN(C(=O)c2ccccc2)CCN1C(=O)C(=O)c1c[nH]c2c(NC(=O)Nc3cc(C(=O)O)cc(C(=O)O)c3)cccc12` [P-I-14], the EC50 was under 1 µM.

Consider `N#CC(=C1CCN(C(=O)C(=O)c2c[nH]c3c(NC(=O)Nc4cc(C(=O)O)cc(C(=O)O)c4)cccc23)CC1)c1ccccc1` [P-I-15], for which the EC50 was under 1 µM.

As for `CCOC(=O)CNC(=O)Nc1cccc2c(C(=O)C(=O)N3CCN(C(=O)c4ccccc4)C[C@H]3C)c[nH]c12` [P-C-1], the EC50 is under 1 µM.

`CCOC(=O)CCCNC(=O)Nc1cccc2c(C(=O)C(=O)N3CCN(C(=O)c4ccccc4)C[C@H]3C)c[nH]c12` [P-C-5]: the EC50 was under 1 µM.

Turning to `C[C@@H]1CN(C(=O)c2ccccc2)CCN1C(=O)C(=O)c1c[nH]c2c(NC(=O)NCCCCCCCCNC(=O)Nc3ccc(B(O)O)cc3)cccc12` [P-C-109], the EC50 was under 1 µM.

As for `C[C@@H]1CN(C(=O)c2ccccc2)CCN1C(=O)C(=O)c1c[nH]c2c(NC(=O)CNC(C)(C)C)cccc12` [P-A-1], the EC50 was under 1 µM.

The values are drawn from patent US8450361B2, “Substituted indole and azaindole oxoacetyl piperazinamide derivatives” (priority 2010, dated 2013).
